Assay results reported in the supplement of paper PMC4862054.

Columns and labels:
Conditions in all cases: incubation time: 72 h
CAL-85-1 [1] = assay: drug sensitivity score (DSS), CellTox Green (DSS (AUC-based score)); higher = stronger drug effect (viability inhibition or cytotoxicity); extreme values may be limits of the assay
Method in brief: (§1)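 The drug sensitivity score was computed from the area under the fitted dose-response curve. Breast cancer cell lines in 20 µl suspension went into 384-well plates holding compound at 5 concentrations (10-fold steps over a 10,000-fold, compound-specific range) for 72 h of incubation. CellTox Green fluorescence (485/520 nm) was read before CellTiter-Glo luminescence, the latter after 10 min at room temperature, and each plate was normalised to 0.1 % DMSO and a positive kill control.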

BT-549 [2] = assay: as above
Method in brief: as §1

HCC1599 [3] = assay: as above
Method in brief: as §1

MCF-10A = assay: as above
Method in brief: as §1

CAL-120 [4] = assay: as above
Method in brief: as §1

DU-4475 [5] = assay: as above
Method in brief: as §1

HCC1143 [6] = assay: as above
Method in brief: as §1

BT-474 [7] = assay: as above
Method in brief: as §1

Hs578T = assay: drug sensitivity score (DSS), CellTiter-Blue viability (DSS (AUC-based score)); higher = stronger viability inhibition; extreme values may be limits of the assay
Description: (§2)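 DSRT with the CellTiter-Blue (resazurin reduction) viability readout, fluorescence 560/590 nm, 72 h incubation. Plates were normalised to DMSO and benzethonium chloride controls. DSS is computed from the area under the fitted dose-response curve (5 or 9 concentrations).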

MFM-223 = assay: as above
Description: as §2

CAL-85-1 [8] = assay: as above
Description: as §2

HDQ-P1 = assay: as above
Description: as §2

BT-549 [9] = assay: as above
Description: as §2

HCC1599 [10] = assay: as above
Description: as §2

CAL-120 [11] = assay: as above
Description: as §2

MDA-MB-468 = assay: as above
Description: as §2

CAL-51 = assay: as above
Description: as §2

MDA-MB-231 = assay: as above
Description: as §2

DU-4475 [12] = assay: as above
Description: as §2

MDA-MB-453 = assay: as above
Description: as §2

HCC1143 [13] = assay: as above
Description: as §2

MDA-MB-436 = assay: as above
Description: as §2

CAL-148 = assay: as above
Description: as §2

HCC1937 = assay: as above
Description: as §2

SK-BR-3 = assay: as above
Description: as §2

BT-474 [14] = assay: as above
Description: as §2

Row | SMILES | drug sensitivity score (CAL-85-1 [1]) | drug sensitivity score (BT-549 [2]) | drug sensitivity score (HCC1599 [3]) | drug sensitivity score (MCF-10A) | drug sensitivity score (CAL-120 [4]) | drug sensitivity score (DU-4475 [5]) | drug sensitivity score (HCC1143 [6]) | drug sensitivity score (BT-474 [7]) | drug sensitivity score (Hs578T) | drug sensitivity score (MFM-223) | drug sensitivity score (CAL-85-1 [8]) | drug sensitivity score (HDQ-P1) | drug sensitivity score (BT-549 [9]) | drug sensitivity score (HCC1599 [10]) | drug sensitivity score (CAL-120 [11]) | drug sensitivity score (MDA-MB-468) | drug sensitivity score (CAL-51) | drug sensitivity score (MDA-MB-231) | drug sensitivity score (DU-4475 [12]) | drug sensitivity score (MDA-MB-453) | drug sensitivity score (HCC1143 [13]) | drug sensitivity score (MDA-MB-436) | drug sensitivity score (CAL-148) | drug sensitivity score (HCC1937) | drug sensitivity score (SK-BR-3) | drug sensitivity score (BT-474 [14])
1 | Cc1c(Cn2c(C)nc3c(C(=O)O)cc(N4CCOCC4)cc32)cccc1C(F)(F)F | 0 | 0 | 0 | 0 | 0 | 0 | 0 | 0 |  |  |  |  |  |  |  |  |  |  |  |  |  |  |  |  |  | 
2 | c1cc(CN2CCCNCCNCCCNCC2)ccc1CN1CCCNCCNCCCNCC1 [Plerixafor] | 0 | 0 | 0 | 0 | 0 | 0 | 0 | 0 | 0 | 0 | 0 | 0 | 0 | 0 | 0 | 0 | 0 | 0 | 0 | 0 | 0 | 0 | 0 | 0 | 0 | 0
3 | CCN(CC)CCNC(=O)c1c(C)[nH]c(/C=C2\C(=O)Nc3ccc(F)cc32)c1C [Sunitinib] | 0 | 0 | 0 | 0 | 0 | 0 | 0 | 0 | 0 | 0 | 0 |  | 0 | 0 | 0 | 0 | 0 | 0 | 0 | 0 | 0 | 0 | 0 | 0 | 0 | 0
4 | Cc1ccc(Nc2nccc(N(C)c3ccc4c(C)n(C)nc4c3)n2)cc1S(N)(=O)=O [Pazopanib] | 0.186 | 0 | 0 | 0 | 0 | 0 | 1.06 | 0 | 0 | 11.6 | 0 | 1.38 | 3.13 | 0 | 0 | 0 | 0 | 0 | 0 | 6.67 | 0 | 4.09 | 0 | 0 | 0 | 0
5 | CO[C@@H](C(=O)N1Cc2[nH]nc(NC(=O)c3ccc(N4CCN(C)CC4)cc3)c2C1)c1ccccc1 [Danusertib] | 0 | 1.26 | 0 | 0.832 | 3.17 | 0 | 0 | 0 | 11.3 | 0 | 10.7 | 14.3 | 9.37 | 6.9 | 10.5 | 15.5 | 13.4 | 11 | 14.2 | 18.4 | 8.76 | 4.87 | 13.2 | 10.8 | 0 | 0
6 | CC(=O)OC[C@H]1O[C@@H]([S-])[C@H](OC(C)=O)[C@@H](OC(C)=O)[C@@H]1OC(C)=O.CCP(CC)CC.[Au+] [Auranofin] | 4.88 | 4.41 | 0 | 0 | 0.776 | 0 | 0.33 | 3.42 |  |  |  |  |  |  |  |  |  |  |  |  |  |  |  |  |  | 
7 | CS(=O)(=O)N1CCN(Cc2cc3nc(-c4cccc5[nH]ncc45)nc(N4CCOCC4)c3s2)CC1 [GDC-0941] |  |  |  |  |  |  |  |  | 8.67 | 12.7 | 9.93 | 18.3 | 9.12 | 11.7 | 10.5 | 8.93 | 13.9 | 8.4 | 2.84 | 18.5 | 9.14 | 7.33 | 11.3 | 8.92 | 19.4 | 11.8
8 | CC/C(=C(\c1ccc(O)cc1)c1ccc(OCCN(C)C)cc1)c1ccccc1 [4-hydroxytamoxifen] | 1.62 | 0 | 0 | 0 | 1.11 | 0 | 1.54 | 3.8 |  |  |  |  |  |  |  |  |  |  |  |  |  |  |  |  |  | 
9 | O=C(Nc1c[nH]nc1-c1nc2ccc(CN3CCOCC3)cc2[nH]1)NC1CC1 [AT9283] |  | 0 | 0 | 0 | 3.42 | 0 | 0 | 0 | 16.4 | 12.4 | 10 | 12.4 | 12.2 | 7.51 | 18.6 | 22.4 | 14 | 13.2 | 22.7 | 17.4 | 9.48 | 8.22 | 7.72 | 15.4 | 17.5 | 8.49
10 | Cn1cc(CNCC2CCN(c3ncc(C(=O)NO)cn3)CC2)c2ccccc21 [Quisinostat] | 20.1 | 0 | 1.48 | 0 | 13.6 | 2.71 | 2.18 | 11 |  |  |  |  |  |  |  |  |  |  |  |  |  |  |  |  |  | 
11 | Cc1cccc(-c2nn3c(c2-c2ccnc4ccc(C(N)=O)cc24)CCC3)n1 |  |  |  |  |  |  |  |  | 0 | 0 | 0 | 0 | 0 | 0 | 0 | 0 | 0 | 0 | 0 | 0 | 0 | 0 | 0 | 0 | 0 | 0
12 | Cc1cccc(-c2nn3c(c2-c2ccnc4ccc(C(N)=O)cc24)CCC3)n1 [Galunisertib] | 0 | 0 | 0 | 0 | 0 | 0 | 0 | 0 |  |  |  |  |  |  |  |  |  |  |  |  |  |  |  |  |  | 
13 | CNC(=O)c1cc(Oc2ccc(NC(=O)Nc3ccc(Cl)c(C(F)(F)F)c3)cc2)ccn1 [Sorafenib] | 0 | 0 | 0 | 0 | 0 | 0 | 0 | 0 | 0 |  |  | 0 |  | 0 | 0 | 0 | 0 | 0 | 0 | 0 | 0 | 0 | 0 | 0 | 0 | 0
14 | Nc1nc(=O)c2c([nH]1)NCC(CNc1ccc(C(=O)N[C@@H](CCC(=O)O)C(=O)O)cc1)N2C=O (mixture of isomers) [Folinic acid] |  |  |  |  |  |  |  |  | 0 | 0 | 0 | 0 | 0 | 0 | 0 | 0 | 0 | 0 | 0 | 0 | 0 | 0 | 0 | 0 | 0 | 0
15 | CC(C)N(CCCNC(=O)Nc1ccc(C(C)(C)C)cc1)C[C@H]1O[C@@H](n2cc(Br)c3c(N)ncnc32)[C@H](O)[C@@H]1O [SGC0946] | 0 | 0 | 0 | 0 | 0 | 0 | 0 | 0 |  |  |  |  |  |  |  |  |  |  |  |  |  |  |  |  |  | 
16 | CS(=O)(=O)N1CCN(Cc2cc3nc(-c4cccc5[nH]ncc45)nc(N4CCOCC4)c3s2)CC1 [Pictilisib] | 3.76 | 0 | 0 | 7.08 | 0 | 0 | 0 | 1.54 |  |  |  |  |  |  |  |  |  |  |  |  |  |  |  |  |  | 
17 | Cn1cc(CNCC2CCN(c3ncc(C(=O)NO)cn3)CC2)c2ccccc21 |  |  |  |  |  |  |  |  | 13.1 | 14.9 | 19.1 | 16.5 | 8.2 | 16.5 | 20.2 | 14.1 | 13.7 | 15 | 21.1 | 27.8 | 18.9 | 5.46 | 22.6 | 16.5 | 25.8 | 19.9
18 | O=C(NC[C@H](O)CO)c1ccncc1Nc1ccc(I)cc1F [Pimasertib] | 6.45 | 0 | 0 | 0 | 2.8 | 9.13 | 0 | 2.1 |  |  |  |  |  |  |  |  |  |  |  |  |  |  |  |  |  | 
19 | O=C(NC[C@H](O)CO)c1ccncc1Nc1ccc(I)cc1F |  |  |  |  |  |  |  |  | 0 | 0 | 6.9 | 10.3 | 0 | 4.05 | 7.78 | 0 | 3.9 | 21.9 | 35.2 | 4.94 | 13.8 | 0 | 3.49 | 0 | 0 | 0
20 | CCCCC/C=C/C=C1/C(=O)C=C[C@@H]1C/C=C\CCCC(=O)O [15D-PGJ2] | 0 | 0 | 0 | 0 | 0 | 0 | 0 | 0 |  |  |  |  |  |  |  |  |  |  |  |  |  |  |  |  |  | 
